According to patent US20120129833A1, “CYCLIC KETOENOLS FOR THERAPY” (BAYER PHARMA AKTIENGESELLSCHAFT, priority 2010, published 2012):

Key:
[1] = target: T1, ACC2 (acetyl-CoA carboxylase 2) (Homo sapiens, UniProt O00763); test: Human ACC2 enzyme assay (HTRF ADP detection); format: biochemical; settings: 20 μM acetyl-CoA, 15 min pre-incubation, 20 min at 22° C.; read-out: ACC 2 IC50
T1 construct: catalogue no; 50201, amino acids 39—end, expressed in baculovirus-transfected Sf9 insect cells; His (C); purchased BPS Bioscience (San Diego, Calif.) 50201; host or cells: baculovirus-transfected Sf9 insect cells
T1 sequence (O00763 39-2458 limits assumed): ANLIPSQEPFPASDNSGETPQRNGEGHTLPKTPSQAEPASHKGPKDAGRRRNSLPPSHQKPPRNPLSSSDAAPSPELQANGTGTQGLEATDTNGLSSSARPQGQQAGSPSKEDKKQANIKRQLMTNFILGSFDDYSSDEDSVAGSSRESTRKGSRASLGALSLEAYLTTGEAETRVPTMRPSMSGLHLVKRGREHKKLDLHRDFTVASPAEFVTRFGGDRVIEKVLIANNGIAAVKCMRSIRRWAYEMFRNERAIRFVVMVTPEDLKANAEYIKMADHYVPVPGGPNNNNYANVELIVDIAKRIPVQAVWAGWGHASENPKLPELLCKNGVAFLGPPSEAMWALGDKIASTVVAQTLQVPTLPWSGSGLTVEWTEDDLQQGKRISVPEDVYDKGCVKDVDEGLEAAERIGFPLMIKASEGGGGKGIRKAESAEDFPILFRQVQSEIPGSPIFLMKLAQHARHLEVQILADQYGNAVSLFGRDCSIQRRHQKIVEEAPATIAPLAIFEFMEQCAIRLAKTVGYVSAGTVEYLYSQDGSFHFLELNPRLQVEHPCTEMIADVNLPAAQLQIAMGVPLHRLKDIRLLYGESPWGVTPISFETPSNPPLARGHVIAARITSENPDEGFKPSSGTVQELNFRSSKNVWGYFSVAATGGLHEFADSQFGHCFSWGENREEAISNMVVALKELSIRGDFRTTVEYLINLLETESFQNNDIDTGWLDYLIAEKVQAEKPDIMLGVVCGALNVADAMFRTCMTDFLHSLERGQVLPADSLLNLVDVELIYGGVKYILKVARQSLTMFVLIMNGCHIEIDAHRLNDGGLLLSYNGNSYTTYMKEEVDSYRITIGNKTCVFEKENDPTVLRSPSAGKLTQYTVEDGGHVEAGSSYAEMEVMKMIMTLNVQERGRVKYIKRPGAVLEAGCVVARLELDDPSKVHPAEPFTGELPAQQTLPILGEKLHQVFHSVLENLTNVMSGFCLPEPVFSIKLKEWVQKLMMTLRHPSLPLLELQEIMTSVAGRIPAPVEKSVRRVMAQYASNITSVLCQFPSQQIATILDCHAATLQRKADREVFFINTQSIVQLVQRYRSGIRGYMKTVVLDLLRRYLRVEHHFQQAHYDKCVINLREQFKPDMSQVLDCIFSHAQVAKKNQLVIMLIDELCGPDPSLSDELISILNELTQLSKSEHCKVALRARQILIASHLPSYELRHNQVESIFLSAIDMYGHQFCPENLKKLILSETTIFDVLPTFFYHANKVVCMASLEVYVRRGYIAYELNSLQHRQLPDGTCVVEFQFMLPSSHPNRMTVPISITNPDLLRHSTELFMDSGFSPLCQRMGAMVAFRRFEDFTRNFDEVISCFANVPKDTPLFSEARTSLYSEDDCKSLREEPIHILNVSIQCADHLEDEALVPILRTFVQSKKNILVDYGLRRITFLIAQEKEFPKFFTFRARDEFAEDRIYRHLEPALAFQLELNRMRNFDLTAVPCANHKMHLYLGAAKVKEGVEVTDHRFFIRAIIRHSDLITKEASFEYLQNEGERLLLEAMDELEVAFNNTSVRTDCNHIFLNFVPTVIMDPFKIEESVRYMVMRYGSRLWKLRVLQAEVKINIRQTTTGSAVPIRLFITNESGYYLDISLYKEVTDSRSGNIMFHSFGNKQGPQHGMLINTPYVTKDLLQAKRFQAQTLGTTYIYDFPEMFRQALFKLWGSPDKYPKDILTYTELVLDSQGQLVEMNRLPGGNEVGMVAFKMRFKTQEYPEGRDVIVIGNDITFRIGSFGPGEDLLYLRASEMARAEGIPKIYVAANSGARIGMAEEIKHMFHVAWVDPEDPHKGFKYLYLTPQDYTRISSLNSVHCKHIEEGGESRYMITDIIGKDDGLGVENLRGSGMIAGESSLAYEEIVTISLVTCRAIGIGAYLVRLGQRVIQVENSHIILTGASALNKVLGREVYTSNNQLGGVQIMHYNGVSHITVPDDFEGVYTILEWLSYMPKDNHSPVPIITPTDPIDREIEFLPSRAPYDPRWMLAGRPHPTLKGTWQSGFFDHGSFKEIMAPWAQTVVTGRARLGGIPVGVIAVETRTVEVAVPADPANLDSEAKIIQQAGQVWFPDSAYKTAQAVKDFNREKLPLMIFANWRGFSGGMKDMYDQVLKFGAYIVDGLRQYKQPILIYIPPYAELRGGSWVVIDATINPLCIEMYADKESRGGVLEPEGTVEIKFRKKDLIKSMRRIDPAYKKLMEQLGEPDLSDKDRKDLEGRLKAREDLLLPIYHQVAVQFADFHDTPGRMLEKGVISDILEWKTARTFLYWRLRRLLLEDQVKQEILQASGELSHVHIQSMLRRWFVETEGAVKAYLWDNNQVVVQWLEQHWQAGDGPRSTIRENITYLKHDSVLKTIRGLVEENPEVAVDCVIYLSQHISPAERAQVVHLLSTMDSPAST
Experimental: The inhibitory activity of the substances of this invention with regard to acetyl-CoA carboxylase 2 (ACC2) was measured using the ACC2 assay described in the paragraphs below. The basic principle of the assay is the measurement of adenosine diphosphate (ADP), which is formed as a by-product, by means of an HTRF®-based competitive immunoassay (HTRF=Homogeneous Time Resolved Fluorescence).
(§1) The amount of complex of d2-labelled ADP and europium cryptate-labelled anti-ADP antibody was then determined by measuring the resonance energy transfer of europium cryptate to d2.

[2] = target: T2, recombinant human ACC1 (acetyl-CoA carboxylase 1) (Homo sapiens, UniProt Q13085); test: Human ACC1 enzyme assay (HTRF ADP detection); format: biochemical; settings: 50 μM ATP, 20 μM acetyl-CoA, 15 min pre-incubation, 20 min at 22° C.; read-out: ACC 1 IC50;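 also: ADP by-product quantified by competitive HTRF immunoassay with europium cryptate anti-ADP antibody and d2-labelled ADP, read after 1 h binding at 22 °C, enzyme near 2.5 ng/µl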
T2 construct: NM_198834, amino acids 39—end; FLAG (C); made in house; host or cells: baculovirus-transfected insect cells (Hi5)
Experimental: The basic principle of the assay is the measurement of adenosine diphosphate (ADP), which is formed as a by-product, by means of an HTRF®-based competitive immunoassay (HTRF=Homogeneous Time Resolved Fluorescence).
as §1

| Compound | IC50 [1] | IC50 [2] |
| --- | --- | --- |
| Cc1ccc(-c2ccc(Cl)cc2)cc1C1=C(O)C2(CCC3(CC2)OCC(C)(C)CO3)NC1=O [Example 1-67, 3-(4′-chloro-4-methylbiphenyl-3-yl)-4-hydroxy-11,11-dimethyl-9,13-dioxa-1-azadispiro[4.2.5.2]pentadec-3-en-2-one] | 1440 nM | 668 nM |
| CO[C@H]1CC[C@]2(CC1)NC(=O)C(c1c(C)cc(C)c(-c3ccc(F)cc3)c1C)=C2O [Example 1-42, (5s,8s)-3-(4′-fluoro-2,4,6-trimethylbiphenyl-3-yl)-4-hydroxy-8-methoxy-1-azaspiro[4.5]dec-3-en-2-one] | 669 nM | > 20000 nM |
| Cc1ccc(-c2ccc(Cl)cc2)c(C)c1C1=C(O)C2(CCC(OCC(F)(F)F)CC2)OC1=O (stereo not drawn) [Example 2-32, 3-(4′-chloro-2,4-dimethylbiphenyl-3-yl)-4-hydroxy-8-(2,2,2-trifluoroethoxy)-1-oxaspiro[4.5]dec-3-en-2-one] | 1600 nM | 450 nM |
| COC1CCC2(CC1)NC(=O)C(c1c(C)cc(OC(F)(F)F)cc1Cl)=C2O (stereo not drawn) [Example C-3, reference compound] | > 20000 nM | > 20000 nM |
| Cc1ccc(-c2ccc(Cl)cc2)cc1C1=C(O)C2CSCCN2C1=O (stereo not drawn) [Example 1-21, 7-(4′-chloro-4-methylbiphenyl-3-yl)-8-hydroxy-1,3,4,8a-tetrahydro-6H-pyrrolo[2,1-c][1,4]thiazin-6-one] | 15100 nM | 533 nM |
| Cc1ccc(-c2ccc(Cl)cc2)c(C)c1C1=C(O)[C@]2(CC[C@H](OCC(F)(F)F)CC2)NC1=O [Example 1-30, (5s,8s)-3-(4′-chloro-2,4-dimethylbiphenyl-3-yl)-4-hydroxy-8-(2,2,2-trifluoroethoxy)-1-azaspiro[4.5]dec-3-en-2-one] | 300 nM | 542 nM |
| O=C1NC2(CCC3(CC2)OCCO3)C(O)=C1c1cc(-c2ccc(Cl)cc2)ccc1Cl [Example 1-61, 11-(4,4′-dichlorobiphenyl-3-yl)-12-hydroxy-1,4-dioxa-9-azadispiro[4.2.4.2]tetradec-11-en-10-one] | 3910 nM | 227 nM |
| COCC1(C)NC(=O)C(c2cc(-c3ccc(Cl)cc3)ccc2C)=C1O (stereo not drawn) [Example 1-46, 3-(4′-chloro-4-methylbiphenyl-3-yl)-4-hydroxy-5-(methoxymethyl)-5-methyl-1,5-dihydro-2H-pyrrol-2-one] | 15800 nM | 812 nM |
| COC1CCCC2(C1)NC(=O)C(c1c(C)ccc(-c3ccc(Cl)cc3)c1C)=C2O (stereo not drawn) [Example 1-72, 3-(4′-chloro-2,4-dimethylbiphenyl-3-yl)-4-hydroxy-7-methoxy-1-azaspiro[4.5]dec-3-en-2-one] | 2340 nM | 1180 nM |
| CC1(C)COC2(CCC3(CC2)NC(=O)C(c2cc(-c4ccc(Cl)cc4)ccc2Cl)=C3O)OC1 [Example 1-65, 3-(4,4′-dichlorobiphenyl-3-yl)-4-hydroxy-11,11-dimethyl-9,13-dioxa-1-azadispiro[4.2.5.2]pentadec-3-en-2-one] | 9470 nM | 934 nM |
| Cc1ccc(-c2ccc(Cl)cc2)cc1C1=C(O)[C@@]2(CC[C@H](OCC(C)C)C2)NC1=O (relative stereo) [Example 1-49, rel-(5R,7R)-3-(4′-chloro-4-methylbiphenyl-3-yl)-4-hydroxy-7-(2-methylpropoxy)-1-azaspiro[4.4]non-3-en-2-one] | 9900 nM | 240 nM |
| O=C1NC2(CCOCC2)C(O)=C1c1cc(-c2ccc(F)cc2)ccc1Cl [Example 1-41, 3-(4-chloro-4′-fluorobiphenyl-3-yl)-4-hydroxy-8-oxa-1-azaspiro[4.5]dec-3-en-2-one] | > 20000 nM | 751 nM |
| Cc1ccc(-c2ccc(Cl)cc2)cc1C1=C(O)CC(C)(C)CC1=O [Example 7-5, 2-(4′-chloro-4-methylbiphenyl-3-yl)-3-hydroxy-5,5-dimethylcyclohex-2-en-1-one] | > 20000 nM | 610 nM |
| Cc1cc(C)c(-c2ccc(Cl)cc2)c(C)c1C1=C(O)[C@]2(CC[C@@]3(CCCO3)CC2)OC1=O [Example 2-31, (5r,8s)-3-(4′-chloro-2,4,6-trimethylbiphenyl-3-yl)-4-hydroxy-1,9-dioxadispiro[4.2.4.2]tetradec-3-en-2-one] | 48 nM | 880 nM |
| COC1CCC2(CC1)NC(=O)C(c1cc(-c3cc(F)ccc3F)ccc1C)=C2O (stereo not drawn) [Example 1-80, 3-(2′,5′-difluoro-4-methylbiphenyl-3-yl)-4-hydroxy-8-methoxy-1-azaspiro[4.5]dec-3-en-2-one] | > 20000 nM | 695 nM |
| COCC1CCCC2(C1)NC(=O)C(c1cc(-c3ccc(Cl)cc3)ccc1Cl)=C2O (stereo not drawn) [Example 1-52, 3-(4,4′-dichlorobiphenyl-3-yl)-4-hydroxy-7-(methoxymethyl)-1-azaspiro[4.5]dec-3-en-2-one] | > 20000 nM | 1270 nM |
| COCCC1(C)NC(=O)C(c2cc(-c3ccc(Cl)cc3)ccc2C)=C1O (stereo not drawn) [Example 1-47, 3-(4′-chloro-4-methylbiphenyl-3-yl)-4-hydroxy-5-(2-methoxyethyl)-5-methyl-1,5-dihydro-2H-pyrrol-2-one] | > 20000 nM | 923 nM |
| Cc1ccc(-c2cccc(Cl)c2)cc1C1=C(O)C2(CCCCCC2)OC1=O [Example 2-50, 3-(3′-chloro-4-methylbiphenyl-3-yl)-4-hydroxy-1-oxaspiro[4.6]undec-3-en-2-one] | 8590 nM | 903 nM |
| Cc1ccc(-c2ccc(Cl)cc2)cc1C1=C(O)C(C)(C(C)C)NC1=O (stereo not drawn) [Example 1-78, 3-(4′-chloro-4-methylbiphenyl-3-yl)-4-hydroxy-5-methyl-5-(propan-2-yl)-1,5-dihydro-2H-pyrrol-2-one] | 1730 nM | 795 nM |
| CO[C@H]1CC[C@]2(CC1)NC(=O)C(c1cc(-c3ccc(F)c(Cl)c3)ccc1C)=C2O [Example 1-43, (5s,8s)-3-(3′-chloro-4′-fluoro-4-methylbiphenyl-3-yl)-4-hydroxy-8-methoxy-1-azaspiro[4.5]dec-3-en-2-one] | 10200 nM | 304 nM |

The remaining lines, values ahead:

| IC50 [1] | IC50 [2] | Compound |
| --- | --- | --- |
| > 20000 nM | 997 nM | O=C1OC2(CCCC2)C(O)=C1c1cc(-c2cc(F)c(F)c(F)c2)ccc1Cl [Example 2-24, 3-(4-chloro-3′,4′,5′-trifluorobiphenyl-3-yl)-4-hydroxy-1-oxaspiro[4.4]non-3-en-2-one] |
| 3530 nM | 216 nM | COC1CCC2(CC1)OC(=O)C(c1cc(-c3ccc(Cl)cc3)ccc1C)=C2O (stereo not drawn) [Example 2-39, 3-(4′-chloro-4-methylbiphenyl-3-yl)-4-hydroxy-8-methoxy-1-oxaspiro[4.5]dec-3-en-2-one] |
| > 20000 nM | 1970 nM | CN1C(=O)C(c2cc(-c3ccc(Cl)cc3)ccc2Cl)C(=O)N1C [Example 8-15, 4-(4,4′-dichlorobiphenyl-3-yl)-1,2-dimethyl-1H-pyrazole-3,5(2H,4H)-dione] |
| > 20000 nM | 442 nM | O=C1OC2(CCCCC2)C(O)=C1c1cc(-c2ccc(F)c(F)c2)ccc1Cl [Example 2-25, 3-(4-chloro-3′,4′-difluorobiphenyl-3-yl)-4-hydroxy-1-oxaspiro[4.5]dec-3-en-2-one] |
| 3680 nM | 204 nM | Cc1ccc(-c2ccc(Cl)cc2)cc1C1=C(O)C2(CCC3(CC2)OCCO3)OC1=O [Example 2-15, 11-(4′-chloro-4-methylbiphenyl-3-yl)-12-hydroxy-1,4,9-trioxadispiro[4.2.4.2]tetradec-11-en-10-one] |
| 9080 nM | 806 nM | Cc1ccc(-c2ccc(Cl)cc2)cc1C1=C(O)C(C)(C)CNC1=O [Example 9-2, 3-(4′-chloro-4-methylbiphenyl-3-yl)-4-hydroxy-5,5-dimethyl-5,6-dihydropyridin-2(1H)-one] |
| 4150 nM | 243 nM | CCC1CCC2(CC1)OC(=O)C(c1cc(-c3ccc(Cl)cc3)ccc1C)=C2O (stereo not drawn) [Example 2-1, 3-(4′-chloro-4-methylbiphenyl-3-yl)-8-ethyl-4-hydroxy-1-oxaspiro[4.5]dec-3-en-2-one] |
| 139 nM | 2150 nM | Cc1cc(C)c(-c2ccc(Cl)cc2)c(C)c1C1=C(O)C2(CCCCC2)OC1=O [Example 2-6, 3-(4′-chloro-2,4,6-trimethylbiphenyl-3-yl)-4-hydroxy-1-oxaspiro[4.5]dec-3-en-2-one] |
| > 20000 nM | 1380 nM | Cc1ccc(-c2ccc(Cl)cc2)cc1C1C(=O)N2CCOCCN2C1=O [Example 8-6, 8-(4′-chloro-4-methylbiphenyl-3-yl)tetrahydro-7H-pyrazolo[1,2-d][1,4,5]oxadiazepine-7,9(8H)-dione] |
| 16000 nM | 655 nM | Cc1ccc(-c2ccc(C)c(C3=C(O)C4(CCCCC4)CC3=O)c2)cc1 [Example 6-1, 3-(4,4′-dimethylbiphenyl-3-yl)-4-hydroxyspiro[4.5]dec-3-en-2-one] |
| 2350 nM | 161 nM | Cc1ccc(-c2ccc(Cl)cc2)cc1C1=C(O)C2(CCCCC2)OC1=O [Example 2-10, 3-(4′-chloro-4-methylbiphenyl-3-yl)-4-hydroxy-1-oxaspiro[4.5]dec-3-en-2-one] |
| > 20000 nM | 913 nM | O=C1C(c2cc(-c3ccc(Cl)cc3)ccc2Cl)C(=O)N2C3CCC(C3)N12 (stereo not drawn) [Example 8-17, 2-(4,4′-dichlorobiphenyl-3-yl)tetrahydro-1H-5,8-methanopyrazolo[1,2-a]pyridazine-1,3(2H)-dione] |
| 7610 nM | 580 nM | Cc1cc(C)c(-c2ccc(Cl)cc2)cc1C1=C(O)C2(CCCOC2)OC1=O (stereo not drawn) [Example 2-46, 3-(4′-chloro-4,6-dimethylbiphenyl-3-yl)-4-hydroxy-1,7-dioxaspiro[4.5]dec-3-en-2-one] |
